Laboratory results from patent US11939609B2, “Rewiring aberrant cancer signaling to a therapeutic effector response with a synthetic two-component system” (The Board of Trustees of the Leland Stanford Junior …, priority 2017, dated 2024).

Key:
[1] = system: BT-474, H1975, MCF-7, MCF-10A and MRC-5 cells; details: 10 μM carboplatin + 10 μM paclitaxel; 10 μM lapatinib
MCF10A cells = assay: Caspase-3 activity assay (fluorescent indicator imaging); type: cell-based; details: non-cancerous breast epithelium line
Source text: (§1) To package lentivirus, HEK293T cells at ˜70% confluency were transfected with psPAX2, pMD2.G, and pLL3.7 plasmids using Lipofectamine 2000 (Life Technologies). Two days following transfection, viral supernatant was filtered with a 0.45 μm PES filter before using to infect target cells. rAAVdj-CAG-RASER1C-mCardinal-BID and rAAVdj-mCardinal were produced at the Stanford Gene Vector and Virus Core (Stanford University). Virus infected cells were neither sorted nor purified prior to obtaining the results shown, to remain close to the actual use scenario.
(§2) NucView 488 Caspase-3 substrate (Biotium) and Hoechst 33342 (Invitrogen) were diluted into culture media to final concentrations of 1 μM each. After 1 h of incubation, cells were imaged with the Axiovert 200M with a 10×0.5-NA air objective.

MRC5 cells = assay: as above; type: cell-based; details: non-cancerous lung fibroblast line
Source text: as §1, §2

Compound | cytotoxicity across ErbB-hyperactive and ErbB-normal cell lines [1] | apoptosis (caspase-3 fluorescent indicator) (MCF10A cells) | apoptosis (caspase-3 fluorescent indicator) (MRC5 cells)
CS(=O)(=O)CCNCc1ccc(-c2ccc3ncnc(Nc4ccc(OCc5cccc(F)c5)c(Cl)c4)c3c2)o1 [Lapatinib, lapatinib] | varied by cell line, but did not consistently correlate with ErbB status |  | 
CC(=O)O[C@H]1C(=O)[C@@]2(C)[C@H]([C@H](OC(=O)c3ccccc3)[C@]3(O)C[C@H](OC(=O)[C@H](O)[C@@H](NC(=O)c4ccccc4)c4ccccc4)C(C)=C1C3(C)C)[C@]1(OC(C)=O)CO[C@@H]1C[C@@H]2O [paclitaxel] |  | apoptosis is induced by paclitaxel | apoptosis is induced by paclitaxel
